# Measurements reported in the supplement of paper PMC10307832.
# Key:
# Assay in all cases: relative viability (nuclei count vs DMSO), 5 days (fraction); higher = more cells survive
# SK-LU-1 = tested on: SK-LU-1
# Method in brief: (§1)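 Relative viability equals treated-well nuclei counts divided by vehicle-well nuclei counts. Counts came from 4× images of lung cancer cell lines grown in 1536-well plates for 5 days after pin-tool dosing on the day after seeding. Dosing used one drug alone or a fixed anchor-drug dose plus five library-drug doses (not always all listed) in √10 steps, and values are medians of duplicate plates.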
# NCI-H1734 = tested on: NCI-H1734
# Method in brief: as §1
# HOP-62 = tested on: HOP-62
# Method in brief: as §1
# LCLC-97TM1 = tested on: LCLC-97TM1
# Method in brief: as §1
# SW 1573 = tested on: SW 1573
# Method in brief: as §1
# EPLC-272H = tested on: EPLC-272H
# Method in brief: as §1
# NCI-H2347 = tested on: NCI-H2347
# Method in brief: as §1
# NCI-H1563 = tested on: NCI-H1563
# Method in brief: as §1
# NCI-H661 = tested on: NCI-H661
# Method in brief: as §1
# NCI-H1993 = tested on: NCI-H1993
# Method in brief: as §1
# H3255 = tested on: H3255
# Method in brief: as §1
# NCI-H322M = tested on: NCI-H322M
# Method in brief: as §1
# NCI-H2009 = tested on: NCI-H2009
# Method in brief: as §1
# NCI-H647 = tested on: NCI-H647
# Method in brief: as §1
# EMC-BAC-2 = tested on: EMC-BAC-2
# Method in brief: as §1
# NCI-H727 = tested on: NCI-H727
# Method in brief: as §1
# NCI-H2085 = tested on: NCI-H2085
# Method in brief: as §1
# NCI-H2126 = tested on: NCI-H2126
# Method in brief: as §1
# NCI-H1915 = tested on: NCI-H1915
# Method in brief: as §1
# LXF-289 = tested on: LXF-289
# Method in brief: as §1
# NCI-H2023 = tested on: NCI-H2023
# Method in brief: as §1
# PC-14 = tested on: PC-14
# Method in brief: as §1
compound,measurement,setting,value
O=c1cc(N2CCOCC2)oc2c(-c3cccc4c3sc3ccccc34)cccc12 + COc1cccc2cc(-c3nc([C@H]4CC[C@H](C(=O)O)CC4)n4ncnc(N)c34)[nH]c12 [OSI-027] (partner 0.5 µM),relative viability,SK-LU-1; first compound 0.01 µM,0.35
same,relative viability,SK-LU-1; first compound 0.03162 µM,0.393
same,relative viability,SK-LU-1; first compound 0.1 µM,0.355
same,relative viability,SK-LU-1; first compound 0.3162 µM,0.398
same,relative viability,SK-LU-1; first compound 1 µM,0.415
same,relative viability,NCI-H1734; first compound 0.01 µM,0.697
same,relative viability,NCI-H1734; first compound 0.03162 µM,0.599
same,relative viability,NCI-H1734; first compound 0.1 µM,0.579
same,relative viability,NCI-H1734; first compound 0.3162 µM,0.67
same,relative viability,NCI-H1734; first compound 1 µM,0.609
same,relative viability,HOP-62; first compound 0.01 µM,0.787
same,relative viability,HOP-62; first compound 0.03162 µM,0.842
same,relative viability,HOP-62; first compound 0.1 µM,0.821
same,relative viability,HOP-62; first compound 0.3162 µM,0.81
same,relative viability,HOP-62; first compound 1 µM,0.804
same,relative viability,LCLC-97TM1; first compound 0.01 µM,0.583
same,relative viability,LCLC-97TM1; first compound 0.03162 µM,0.684
same,relative viability,LCLC-97TM1; first compound 0.1 µM,0.491
same,relative viability,LCLC-97TM1; first compound 0.3162 µM,0.612
same,relative viability,LCLC-97TM1; first compound 1 µM,0.555
same,relative viability,SW 1573; first compound 0.01 µM,0.675
same,relative viability,SW 1573; first compound 0.03162 µM,0.709
same,relative viability,SW 1573; first compound 0.1 µM,0.678
same,relative viability,SW 1573; first compound 0.3162 µM,0.615
same,relative viability,SW 1573; first compound 1 µM,0.737
same,relative viability,EPLC-272H; first compound 0.01 µM,0.33
same,relative viability,EPLC-272H; first compound 0.03162 µM,0.296
same,relative viability,EPLC-272H; first compound 0.3162 µM,0.332
same,relative viability,EPLC-272H; first compound 1 µM,0.314
same,relative viability,NCI-H2347; first compound 0.01 µM,0.503
same,relative viability,NCI-H2347; first compound 0.03162 µM,0.392
same,relative viability,NCI-H2347; first compound 0.1 µM,0.522
same,relative viability,NCI-H2347; first compound 0.3162 µM,0.42
same,relative viability,NCI-H2347; first compound 1 µM,0.461
same,relative viability,NCI-H1563; first compound 0.01 µM,0.695
same,relative viability,NCI-H1563; first compound 0.03162 µM,0.741
same,relative viability,NCI-H1563; first compound 0.1 µM,0.773
same,relative viability,NCI-H1563; first compound 0.3162 µM,0.794
same,relative viability,NCI-H1563; first compound 1 µM,0.697
same,relative viability,NCI-H661; first compound 0.01 µM,0.692
same,relative viability,NCI-H661; first compound 0.03162 µM,0.738
same,relative viability,NCI-H661; first compound 0.1 µM,0.772
same,relative viability,NCI-H661; first compound 0.3162 µM,0.756
same,relative viability,NCI-H661; first compound 1 µM,0.708
same,relative viability,NCI-H1993; first compound 0.01 µM,0.501
same,relative viability,NCI-H1993; first compound 0.03162 µM,0.521
same,relative viability,NCI-H1993; first compound 0.1 µM,0.566
same,relative viability,NCI-H1993; first compound 0.3162 µM,0.532
same,relative viability,NCI-H1993; first compound 1 µM,0.65
same,relative viability,H3255; first compound 0.01 µM,0.659
same,relative viability,H3255; first compound 0.03162 µM,0.503
same,relative viability,H3255; first compound 0.1 µM,0.584
same,relative viability,H3255; first compound 0.3162 µM,0.668
same,relative viability,H3255; first compound 1 µM,0.536
same,relative viability,NCI-H322M; first compound 0.01 µM,0.599
same,relative viability,NCI-H322M; first compound 0.03162 µM,0.646
same,relative viability,NCI-H322M; first compound 0.1 µM,0.282
same,relative viability,NCI-H322M; first compound 0.3162 µM,0.579
same,relative viability,NCI-H322M; first compound 1 µM,0.43
same,relative viability,NCI-H2009; first compound 0.01 µM,0.697
same,relative viability,NCI-H2009; first compound 0.03162 µM,0.791
same,relative viability,NCI-H2009; first compound 0.1 µM,0.664
same,relative viability,NCI-H2009; first compound 0.3162 µM,0.65
same,relative viability,NCI-H2009; first compound 1 µM,0.654
same,relative viability,NCI-H647; first compound 0.01 µM,0.689
same,relative viability,NCI-H647; first compound 0.03162 µM,0.739
same,relative viability,NCI-H647; first compound 0.1 µM,0.302
same,relative viability,NCI-H647; first compound 0.3162 µM,0.747
same,relative viability,NCI-H647; first compound 1 µM,0.745
same,relative viability,EMC-BAC-2; first compound 0.01 µM,0.409
same,relative viability,EMC-BAC-2; first compound 0.03162 µM,0.427
same,relative viability,EMC-BAC-2; first compound 0.1 µM,0.419
same,relative viability,EMC-BAC-2; first compound 0.3162 µM,0.423
same,relative viability,EMC-BAC-2; first compound 1 µM,0.385
same,relative viability,NCI-H727; first compound 0.01 µM,0.498
same,relative viability,NCI-H727; first compound 0.03162 µM,0.567
same,relative viability,NCI-H727; first compound 0.1 µM,0.473
same,relative viability,NCI-H727; first compound 0.3162 µM,0.592
same,relative viability,NCI-H727; first compound 1 µM,0.659
same,relative viability,NCI-H2085; first compound 0.01 µM,0.946
same,relative viability,NCI-H2085; first compound 0.03162 µM,0.768
same,relative viability,NCI-H2085; first compound 0.1 µM,0.756
same,relative viability,NCI-H2085; first compound 0.3162 µM,0.827
same,relative viability,NCI-H2085; first compound 1 µM,0.8
same,relative viability,NCI-H2126; first compound 0.01 µM,0.709
same,relative viability,NCI-H2126; first compound 0.03162 µM,0.707
same,relative viability,NCI-H2126; first compound 0.1 µM,0.706
same,relative viability,NCI-H2126; first compound 0.3162 µM,0.772
same,relative viability,NCI-H2126; first compound 1 µM,0.702
same,relative viability,NCI-H1915; first compound 0.01 µM,0.672
same,relative viability,NCI-H1915; first compound 0.03162 µM,0.796
same,relative viability,NCI-H1915; first compound 0.1 µM,0.663
same,relative viability,NCI-H1915; first compound 0.3162 µM,0.647
same,relative viability,NCI-H1915; first compound 1 µM,0.65
same,relative viability,LXF-289; first compound 0.01 µM,0.807
same,relative viability,LXF-289; first compound 0.03162 µM,0.778
same,relative viability,LXF-289; first compound 0.1 µM,0.755
same,relative viability,LXF-289; first compound 0.3162 µM,0.825
same,relative viability,LXF-289; first compound 1 µM,0.81
same,relative viability,NCI-H2023; first compound 0.01 µM,0.456
same,relative viability,NCI-H2023; first compound 0.03162 µM,0.536
same,relative viability,NCI-H2023; first compound 0.1 µM,0.424
same,relative viability,NCI-H2023; first compound 0.3162 µM,0.394
same,relative viability,NCI-H2023; first compound 1 µM,0.411
same,relative viability,PC-14; first compound 0.01 µM,0.954
same,relative viability,PC-14; first compound 0.03162 µM,0.858
same,relative viability,PC-14; first compound 0.1 µM,0.74
same,relative viability,PC-14; first compound 0.3162 µM,1.04
same,relative viability,PC-14; first compound 1 µM,0.795
